Reference: US8653050B2, “Phenyl bicyclic methyl amine derivatives as sphingosine-1 phosphate receptors modulators” (Allergan, Inc., priority 2011, dated 2014)

Key:
human S1P1 receptor = target: T1, human S1P1 receptor (Homo sapiens, UniProt P21453); assay: GTP γ35S binding assay for S1P1 activity; assay type: biochemical; settings: membranes of cells stably expressing S1P1 receptor
T1 construct: expressed in transfected cells; membranes used
Protocol: Compounds were synthesized and tested for S1P1 activity using the GTP γ^35S binding assay. These compounds may be assessed for their ability to activate or block activation of the human S1P1 receptor in cells stably expressing the S1P1 receptor.
GTP γ^35S binding was measured in the medium containing (mM) HEPES 25, pH 7.4, MgCl2 10, NaCl 100, dithitothreitol 0.5, digitonin 0.003%, 0.2 nM GTP γ^35S, and 5 μg membrane protein in a volume of 150 μl. Test compounds were included in the concentration range from 0.08 to 5,000 nM unless indicated otherwise. Membranes were incubated with 100 μM 5′-adenylylimmidodiphosphate for 30 min, and subsequently with 10 μM GDP for 10 min on ice. Drug solutions and membrane were mixed, and then reactions were initiated by adding GTP γ^35S and continued for 30 min at 25° C. Reaction mixtures were filtered over Whatman GF/B filters under vacuum, and washed three times with 3 mL of ice-cold buffer (HEPES 25, pH7.4, MgCl2 10 and NaCl 100). Filters were dried and mixed with scintillant, and counted for ^35S activity using a β-counter. Agonist-induced GTP γ^35S binding was obtained by subtracting that in the absence of agonist. Binding data were analyzed using a non-linear regression method. In case of antagonist assay, the reaction mixture contained 10 nM […] in the presence of test antagonist at concentrations ranging from 0.08 to 5000 nM.

female C57BL6 mice = assay: Lymphopenia assay in mice (in vivo blood lymphocyte depletion); settings: subcutaneous, 10 mg/Kg or 2 mg/Kg, 24 hours after dosing, FIG. 1 / FIG. 2
Protocol: Test drugs are prepared in a solution containing 3% (w/v) 2-hydroxy propyl R-cyclodextrin (HPBCD) and 1% DMSO to a final concentration of 1 mg/ml, and subcutaneously injected to female C57BL6 mice (CHARLES RIVERS) weighing 20-25 g at the dose of 10 mg/Kg. Blood samples are obtained by puncturing the submandibular skin with a Goldenrod animal lancet at 5, 24, 48, 72, and 96 hrs post drug application. Blood is collected into microvettes (SARSTEDT) containing EDTA tripotassium salt. Lymphocytes in blood samples are counted using a HEMAVET Multispecies Hematology System, HEMAVET HV950FS (Drew Scientific Inc.). (Hale, J. et al Bioorg. & Med. Chem. Lett. 14 (2004) 3351).
A lymphopenia assay in mice, as previously described, was employed to measure the in vivo blood lymphocyte depletion after dosing Compounds 9, 10, 11 and 14, (FIG. 1) and Compounds 15, 17, 18 and 20, (FIG. 2). These S1P agonists (or modulators) are useful for S1P-related diseases, and exemplified by the lymphopenia in vivo response. In general, test compounds were prepared in a solution containing 3% (w/v) 2-hydroxy propyl β-cyclodextrin (HPBCD) and 1% DMSO to a final concentration of 1 mg/ml, and subcutaneously injected to female C57BL6 mice (CHARLES RIVERS) weighing 20-25 g at the dose of 10 mg/Kg or 2 mg/Kg. Blood samples were obtained by puncturing the submandibular skin with a Goldenrod animal lancet at 24, 48, 72 and 96 hrs post drug application. Blood was collected into microvettes (SARSTEDT) containing EDTA tripotassium salt. Lymphocytes in blood samples were counted using a HEMAVET Multispecies Hematology System, HEMAVET HV950FS (Drew Scientific Inc.).

T1 sequence (P21453 whole entry): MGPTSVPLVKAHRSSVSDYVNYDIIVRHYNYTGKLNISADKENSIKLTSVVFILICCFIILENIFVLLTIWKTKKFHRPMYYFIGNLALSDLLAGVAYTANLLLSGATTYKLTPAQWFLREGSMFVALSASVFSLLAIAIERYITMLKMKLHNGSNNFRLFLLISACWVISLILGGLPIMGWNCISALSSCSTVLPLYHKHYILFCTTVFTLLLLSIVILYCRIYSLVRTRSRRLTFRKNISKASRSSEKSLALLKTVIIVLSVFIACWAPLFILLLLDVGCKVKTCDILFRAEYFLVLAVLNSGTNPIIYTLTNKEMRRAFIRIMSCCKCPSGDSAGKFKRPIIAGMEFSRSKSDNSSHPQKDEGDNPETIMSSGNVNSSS

Row | SMILES | EC50 (human S1P1 receptor) [nM] | lymphocyte count after 24 hours (female C57BL6 mice)
1 | CCCCCCCCc1ccc(-c2ccc(CNCCCP(=O)(O)O)c3ncccc23)cc1 [Compound 12, [3-({[5-(4-octylphenyl)quinolin-8-yl]methyl}amino)propyl]phosphonic acid] | 11.2 | –
2 | CCCCC(CC)CCc1ccc(-c2ccc(CNCCCP(=O)(O)O)c3ncccc23)cc1 (centres unmarked) [Compound 11, {3-[({5-[4-(3-ethylheptyl)phenyl]quinolin-8-yl}methyl)amino]propyl}phosphonic acid] | 6.97 | lowered lymphocyte count
3 | Cc1ccccc1CCCc1ccc(-c2ccc(CNCCCP(=O)(O)O)c3ncccc23)cc1 [Compound 8, (3-{[(5-{4-[3-(2-methylphenyl)propyl]phenyl}quinolin-8-yl)methyl]amino}propyl)phosphonic acid] | 3.8 | –
4 | O=P(O)(O)CCCNCc1ccc(-c2ccc(CCCc3ccccc3)cc2)c2cccnc12 [Compound 6, {3-[({5-[4-(3-phenylpropyl)phenyl]quinolin-8-yl}methyl)amino]propyl}phosphonic acid] | 8.3 | –
5 | CCCCCCCc1ccc(-c2ccc(CNCCCP(=O)(O)O)c3ncccc23)cc1F [Compound 10, [3-({[5-(3-fluoro-4-heptylphenyl)quinolin-8-yl]methyl}amino)propyl]phosphonic acid] | 223 | lowered lymphocyte count
6 | CCCCCCc1ccc(-c2ccc(CNCCCP(=O)(O)O)c3ccccc23)cc1 [Compound 3, [3-({[4-(4-hexylphenyl)-1-naphthyl]methyl}amino)propyl]phosphonic acid] | 54.2 | –
7 | CCCCCCc1ccc(-c2ccc(CNCCOP(=O)(O)O)c3ncccc23)cc1 [Compound 5, 2-({[5-(4-hexylphenyl)quinolin-8-yl]methyl}amino)ethyl dihydrogen phosphate] | 31.1 | –
8 | CCCCCCCc1ccc(-c2ccc(CNCCCP(=O)(O)O)c3ncccc23)c(F)c1 [Compound 9, [3-({[5-(2-fluoro-4-heptylphenyl)quinolin-8-yl]methyl}amino)propyl]phosphonic acid] | 13.6 | lowered lymphocyte count
9 | CCCCCCc1ccc(-c2ccc(CNCCC(=O)O)c3ncccc23)cc1 [Compound 7, 3-({[5-(4-hexylphenyl)quinolin-8-yl]methyl}amino)propanoic acid] | 872 | –
10 | CCCCCCc1ccc(-c2ccc(CNCCCP(=O)(O)O)c3ncccc23)cc1 [Compound 4, [3-({[5-(4-hexylphenyl)quinolin-8-yl]methyl}amino)propyl]phosphonic acid] | 0.6 | –
11 | O=P(O)(O)CCCNCc1ccc(-c2ccc(CCCc3ccccc3)c(F)c2)c2cccnc12 [Compound 2, {3-[({5-[3-fluoro-4-(3-phenylpropyl)phenyl]quinolin-8-yl}methyl)amino]propyl}phosphonic acid] | 5.95 | –

More lines, main results first:

Row | EC50 (human S1P1 receptor) [nM] | SMILES | lymphocyte count after 24 hours (female C57BL6 mice)
12 | 2.63 | CCCCC(CC)CCc1ccc(-c2ccc(CNCCOP(=O)(O)O)c3ncccc23)cc1F (centres unmarked) [Compound 23, 2-[({5-[4-(3-ethylheptyl)-3-fluorophenyl]quinolin-8-yl}methyl)amino]ethyl dihydrogen phosphate] | –
13 | 1 | Cc1ccc(CCCc2ccc(-c3ccc(CNCCCP(=O)(O)O)c4ncccc34)cc2F)cc1 [Compound 18, (3-{[(5-{3-fluoro-4-[3-(4-methylphenyl)propyl]phenyl}quinolin-8-yl)methyl]amino}propyl)phosphonic acid] | lowered lymphocyte count
14 | 2.5 | CCCCC(CC)CCc1ccc(-c2ccc(CNCCCP(=O)(O)O)c3ncccc23)cc1F (centres unmarked) [Compound 19, {3-[({5-[4-(3-ethylheptyl)-3-fluorophenyl]quinolin-8-yl}methyl)amino]propyl}phosphonic acid] | –
15 | 1.3 | CCCCCCc1ccc(-c2ccc(CNCCCP(=O)(O)O)c3ncccc23)cc1F [Compound 13, [3-({[5-(3-fluoro-4-hexylphenyl)quinolin-8-yl]methyl}amino)propyl]phosphonic acid] | –
16 | 137 | CCCCC(CC)CCc1ccc(-c2ccc(CNCCO)c3ncccc23)cc1F (centres unmarked) [Compound 22, 2-[({5-[4-(3-ethylheptyl)-3-fluorophenyl]quinolin-8-yl}methyl)amino]ethanol] | –
17 | 1.5 | O=P(O)(O)CCCNCc1ccc(-c2ccc(CCC3CCCCC3)cc2)c2cccnc12 [Compound 14, {3-[({5-[4-(2-cyclohexylethyl)phenyl]quinolin-8-yl}methyl)amino]propyl}phosphonic acid] | lowered lymphocyte count
18 | 1 | Cc1ccccc1CCCc1ccc(-c2ccc(CNCCCP(=O)(O)O)c3ncccc23)cc1F [Compound 16, (3-{[(5-{3-fluoro-4-[3-(2-methylphenyl)propyl]phenyl}quinolin-8-yl)methyl]amino}propyl)phosphonic acid] | –
19 | 192 | CCCCCCc1ccc(-c2ccc(CNCCO)c3ncccc23)cc1 [Compound 15, 2-({[5-(4-hexylphenyl)quinolin-8-yl]methyl}amino)ethanol] | lowered lymphocyte count
20 | 1.68 | O=P(O)(O)CCCNCc1ccc(-c2ccc(CCC3CCCCC3)c(F)c2)c2cccnc12 [Compound 20, {3-[({5-[4-(2-cyclohexylethyl)-3-fluorophenyl]quinolin-8-yl}methyl)amino]propyl}phosphonic acid] | lowered lymphocyte count
21 | 0.3 | Cc1cccc(CCCc2ccc(-c3ccc(CNCCCP(=O)(O)O)c4ncccc34)cc2F)c1 [Compound 17, (3-{[(5-{3-fluoro-4-[3-(3-methylphenyl)propyl]phenyl}quinolin-8-yl)methyl]amino}propyl)phosphonic acid] | lowered lymphocyte count
